Measurements from US10590116B2, “3-indolyl furanoids as inhibitors of matrix metalloproteinase-9 for prevention of gastric ulcer and other inflammatory diseases” (Council of Scientific & Industrial Research, priority 2017, dated 2020).
“And” between values parts separate entries of the source, which are not always exact repeats. Equal values may be shown once.

What was measured:
Myeloperoxidase (MPO) = assay: Myeloperoxidase assay in gastric tissue; format: in vivo; details: ulcerated mice, gastric tissue homogenate
Protocol: To understand the anti-inflammatory activity of compound 5, the inventors performed Myeloperoxidase (MPO) Assay in mouse of control, diseased and treated. Myeloperoxidase (MPO) activity in the mice gastric tissues was measured by calorimetric assay using guaiacol as the substrate. Briefly, gastric tissue homogenate prepared in 5 mM phosphate buffer was added to 1 mL of reaction buffer containing 0.5 mM H2O2 and 0.4 M guaiacol in 50 mM phosphate buffer, pH 7.4. The changes in the optical density per minute for tetraguaiacol were measured at 470 nm in a Shimadzu spectrophotometer. The results were expressed in units/gram gastric tissue (ε=26.6/mM/cm).
Myeloperoxidase (MPO) activity in the mouse gastric tissue homogenate was assayed colorimetrically using guaiacol and H2O2.

MMP-9 = molecular target: T1, MMP-9 (Mus musculus, UniProt P41245); assay: Gelatin zymography of gastric tissue extract, MMP-9; format: in vivo, mice; details: pretreatment before indomethacin
T1 construct: from tissue; host or cells: mouse stomach (gastric tissue) PBS / Triton X-100 extracts
T1 sequence (P41245 108-730): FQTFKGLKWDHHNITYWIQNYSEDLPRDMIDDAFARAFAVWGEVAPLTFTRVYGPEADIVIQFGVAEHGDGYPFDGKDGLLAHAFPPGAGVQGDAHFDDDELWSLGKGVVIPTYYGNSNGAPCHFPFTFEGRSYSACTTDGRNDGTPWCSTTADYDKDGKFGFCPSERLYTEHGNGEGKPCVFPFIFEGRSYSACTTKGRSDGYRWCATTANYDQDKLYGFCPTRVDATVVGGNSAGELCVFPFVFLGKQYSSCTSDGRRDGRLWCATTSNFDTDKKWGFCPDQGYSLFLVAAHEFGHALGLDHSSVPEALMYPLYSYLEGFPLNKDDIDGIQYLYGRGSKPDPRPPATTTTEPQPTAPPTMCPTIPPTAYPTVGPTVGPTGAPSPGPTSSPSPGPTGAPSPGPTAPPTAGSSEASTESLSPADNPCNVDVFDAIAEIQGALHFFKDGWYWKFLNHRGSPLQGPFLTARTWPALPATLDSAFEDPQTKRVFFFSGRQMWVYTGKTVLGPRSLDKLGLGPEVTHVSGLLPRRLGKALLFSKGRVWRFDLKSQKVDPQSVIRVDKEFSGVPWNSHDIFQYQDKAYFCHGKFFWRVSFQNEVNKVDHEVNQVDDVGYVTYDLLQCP
Protocol: (§1) The whole stomach (including fundic, body and pyloric parts) was washed with saline and used for extraction. Stomach except connective tissue layer (named as gastric tissue) were suspended in 10 mM phosphate buffer saline (PBS) containing protease inhibitors, minced and incubated for 10 min at 4° C. After centrifugation at 12,000 g for 15 min, the supernatant was collected as PBS extracts. The pellet was then extracted in lysis buffer (10 mM Tris-HCl pH 8.0, 150 mM NaCl, 1% Triton X-100 and protease inhibitors) and centrifuged at 12,000 g for 15 min to obtain TX extracts. Both PBS and TX extracts were preserved at −70° C. and used in future studies. Proteins were estimated either by Lowry method or by Bradford assay.
(§2) For the analysis of MMP-9 activity, tissue extracts were electrophoresed in 8% SDS-PAGE containing 1 mg/mL gelatin under nonreducing conditions. Equal amounts of tissue extracts (70 μg of total protein) were loaded in all the lanes. […] Quantification of zymographic bands was performed using densitometry linked to proper software (Lab Image, Kapelan Gmbh, Leipzig, Germany). […]
(§3) Tissue extracts were electrophoresed in SDS-PAGE containing gelatin under nonreducing conditions. […] Gelatinolytic activity came as negative staining and was quantified by Lab Image software.

[1] = tested on: indomethacin-induced acute gastric ulcers; assay: Protection studies of gastric ulceration in vivo (indomethacin-induced acute gastric ulcer, ulcer index); parameters: species or system Balb/c mice; details: for inhibition in ulcer index: 4 h
Protocol: Animal experiments were carried out using Balb/c mice (20-25 g). Animals were anesthetized with ketamine (12 mg/kg b.w.) prior to cervical dislocation. Control and experimental animals were fasted for 6 hr with free access to water.
Balb/c mice (20-25 g) bred in-house with free access to food and water was used for all experiments. Experiments were designed to minimize animal suffering and to use the minimum number associated with valid statistical evaluation. Animals were anesthetized with ketamine (12 mg/kg b.w.) followed by cervical dislocation. Animal experiments were carried out following the guidelines of animal ethics committee of the institute. Control and experimental animals were fasted for 6 h with free access to water.
Before ulcer induction, animals of both control and experimental groups were kept separately in standard controlled conditions. Acute gastric ulcers were induced by oral administration of indomethacin at a dose of 80 mg/kg b.w. The control group received the vehicle only (olive oil), whereas the experimental group received indomethacin for gastric ulceration. After 4 h, the animals were sacrificed and gastric lesions in the fundic stomach were scored and expressed as obtained by counting the number of red bands/dots as follows: 0=no pathology; 1=a small pinhead ulcer spot; and 2-5=a band like lesion of 2-5 mm length. Total score become ˜50 when ulcer is severe. The sum of the total scores as divided by the number of animals was expressed as the mean ulcer index. Formulations were administered orally 30 min prior to indomethacin treatment to check the gastroprotective effect. Among all the chemical compositions of 3-indolyl furanoids synthesized (table 1), compounds 1, 2, 5, 8, 9 and 12 were tested for prevention studies against gastric inflammation in vivo.

purified MMP-9 = molecular target: T2, purified MMP-9 (Homo sapiens, UniProt P14780); assay: IC50 on purified MMP-9 using gelatin zymography; format: biochemical, human (IPF patients); details: purified MMP-9, gelatin zymography, three independent experiments
T2 construct: from tissue; host or cells: bronchoalveolar lavage fluid of IPF patients
T2 sequence (P14780 94-707): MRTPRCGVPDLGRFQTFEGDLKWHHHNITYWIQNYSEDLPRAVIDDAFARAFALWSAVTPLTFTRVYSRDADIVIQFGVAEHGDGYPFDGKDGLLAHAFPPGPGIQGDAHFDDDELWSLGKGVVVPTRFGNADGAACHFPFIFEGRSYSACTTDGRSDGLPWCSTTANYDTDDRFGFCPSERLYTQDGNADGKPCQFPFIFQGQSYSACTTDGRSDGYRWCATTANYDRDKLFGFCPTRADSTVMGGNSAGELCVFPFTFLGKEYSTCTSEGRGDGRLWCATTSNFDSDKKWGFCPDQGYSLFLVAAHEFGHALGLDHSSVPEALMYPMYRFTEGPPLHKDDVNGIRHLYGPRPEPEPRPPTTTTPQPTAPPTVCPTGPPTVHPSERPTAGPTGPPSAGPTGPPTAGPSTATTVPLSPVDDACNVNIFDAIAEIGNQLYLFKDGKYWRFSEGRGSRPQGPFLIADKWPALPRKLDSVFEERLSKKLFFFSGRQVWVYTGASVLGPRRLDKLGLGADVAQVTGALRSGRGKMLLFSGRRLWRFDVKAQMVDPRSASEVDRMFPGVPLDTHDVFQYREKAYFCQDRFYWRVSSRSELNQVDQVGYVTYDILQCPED
Protocol: MMP-9 was purified from the bronchoalveolar lavage fluid (BALF) of idiopathic pulmonary fibrosis (IPF) patients as these fluids contain enormous amounts of MMP-9. All purification procedures were carried out at 4° C. Briefly, BALF containing protease inhibitor cocktail (EDTA Free) were centrifuged at 12,000 g for 15 min, and the supernatant was collected and processed for protein purification. […] The enzyme was eluted with 7% dimethyl sulfoxide diluted in the same buffer, and the fractions containing enzyme protein as determined by absorbance at 280 nm were pooled and immediately dialyzed against equilibrating buffer at 4° C. They were then concentrated using Amicon Ultra-15 centrifugal filter devices and protein concentration was determined by Bradford assay. These samples were screened to confirm the presence of MMP-9 and absence of MMP-2 by gelatin zymography and stored at −70° C.
The inventors address the IC50 value of compound 5 towards MMP-9 binding. To evaluate the IC50 value of compound 5 on MMP-9 activity, equal amount of purified MMP-9 was incubated with various concentrations of compound 5 followed by electrophoresis in 8% SDS-PAGE containing 1 mg/mL gelatin under nonreducing conditions.

MMP-2 = molecular target: T3, MMP-2 (Mus musculus, UniProt P33434); assay: Gelatin zymography of gastric tissue extract, MMP-2; format: in vivo, mice; details: pretreatment before indomethacin
T3 construct: Tissue extracts were electrophoresed in SDS-PAGE containing gelatin under nonreducing conditions; from tissue; host or cells: mouse stomach (gastric tissue) PBS / Triton X-100 extracts
T3 sequence (P33434 110-662): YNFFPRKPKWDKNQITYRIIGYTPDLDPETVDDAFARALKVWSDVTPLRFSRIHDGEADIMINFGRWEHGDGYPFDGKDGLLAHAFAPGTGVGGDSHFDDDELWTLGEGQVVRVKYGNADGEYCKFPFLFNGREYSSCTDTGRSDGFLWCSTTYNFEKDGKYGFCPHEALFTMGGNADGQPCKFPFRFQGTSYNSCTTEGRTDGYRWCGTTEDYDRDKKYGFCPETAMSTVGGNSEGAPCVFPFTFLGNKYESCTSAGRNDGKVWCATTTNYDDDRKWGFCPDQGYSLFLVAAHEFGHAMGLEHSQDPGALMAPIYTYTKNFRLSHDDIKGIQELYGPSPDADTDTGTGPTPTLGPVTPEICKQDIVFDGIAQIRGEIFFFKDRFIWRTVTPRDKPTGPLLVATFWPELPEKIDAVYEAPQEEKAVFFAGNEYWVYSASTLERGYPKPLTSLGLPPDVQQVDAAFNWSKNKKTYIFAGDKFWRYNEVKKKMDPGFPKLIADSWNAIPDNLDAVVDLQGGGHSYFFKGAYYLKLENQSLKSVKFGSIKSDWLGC
Protocol: as §1, §2, §3

How did the Myeloperoxidase (Myeloperoxidase (MPO)) turn out when `COc1cccc2[nH]cc(-c3cc(-c4ccccc4)oc3-c3ccccc3)c12` [compound 5, 4-methoxy-3-(2,5-diphenylfuran-3-yl)-1H-indole] was run?
The Myeloperoxidase was 9.13±0.33 units/gram tissue.

And the Myeloperoxidase (Myeloperoxidase (MPO); listed as Compound 5)?
Its Myeloperoxidase is 9.13 ± 0.33 units/gram tissue.

And the “MMP-9 activity in gastric tissue extract” value (MMP-9)?
Its value is “inhibits MMP-9 activity in gastric mucosa”.

And the “MMP-9 activity in gastric tissue extract” value (MMP-9; listed as Compound 5)?
Its value is “inhibited MMP-9 activity very significantly”.

What about the “inhibition in ulcer index” value ([1]; 10 mg/kg bw oral prior to indomethacin 80 mg/kg) of the same compound?
Its value is 40%.

And the “inhibition in ulcer index” value ([1]; 25 mg/kg bw oral prior to indomethacin 80 mg/kg)?
The value was 80%.

And the inhibition in vivo at 50 mg/kg ([1]; Mus musculus, 50 mg/kg body weight oral in olive oil, indomethacin 80 mg/kg, scored after 4 h, Balb/c mice)?
The inhibition in vivo at 50 mg/kg was 95%.

What about the IC50 (purified MMP-9) of the same compound?
The IC50 was ~50 µM and 50 µM.

What about the “MMP-2 activity in gastric tissue extract” value (MMP-2) of the same compound?
The value was “remained unaltered”.
